Assay results as given in patent US20060235036A1, “Vanilloid receptor ligands and their use in treatments” (priority 2005, published 2006).
Counter-ions that a name gives are not always drawn.

Molecular target: T1, human VR1 (Homo sapiens, UniProt Q8NER1)
T1 construct: expressed in transfected cells
Assay: Human VR1 Capsaicin Antagonist Assay (45Ca2+ uptake, CHO cells stably expressing human VR1)
Assay type: cell-based
Conditions: capsaicin stimulus, Calcium-45 uptake
Protocol: Compounds may be assayed using Chinese Hamster Ovary cell lines stably expressing either human VR1 or rat VR1 under a CMV promoter. Cells can be cultured in Growth Medium, routinely passaged at 70% confluency using trypsin and plated in the assay plate 24 hours prior to compound evaluation. Possible Growth Medium: • DMEM, high glucose (Gibco 11965-084). • 10% Dialyzed serum (Hyclone SH30079.03). • 1× Non-Essential Amino Acids (Gibco 11140-050). • 1× Glutamine-Pen-Strep (Gibco 10378-016). • Geneticin, 450 μg/mL (Gibco 10131-035). Compounds can be diluted in 100% DMSO and tested for activity over several log units of concentration [40 μM-2 pM]. Compounds may be further diluted in HBSS buffer (pH 7.4) 0.1 mg/mL BSA, prior to evaluation. Final DMSO concentration in assay would be 0.5%. Each assay plate can be controlled with a buffer only and a known antagonist compound (either capsazepine or one of the described VR1 antagonists). Activation of VR1 can be achieved in these cellular assays using either a capsaicin stimulus (ranging from 0.1-1 μM) or by an acid stimulus (addition of 30 mM Hepes/Mes buffered at pH 4.1). Compounds may also tested in an assay format to evaluate their agonist properties at VR1. • Capsaicin Antagonist Assay: Compounds may be pre-incubated with cells (expressing either human or rat VR1) for 2 minutes prior to addition of Calcium-45 and Capsaicin and then left for an additional 2 minutes prior to compound washout. Capsaicin (0.5 […]) can be added in HAM's F12, 0.1 mg/mL BSA, 15 mM Hepes at pH 7.4. Final ^45Ca (Amersham CES3-2 mCi) at 10 μCi/mL. • Acid Antagonist Assay: Compounds can be pre-incubated with cells (expressing either human or rat VR1) for 2 minutes prior to addition of Calcium-45 in 30 mM Hepes/Mes buffer (Final Assay pH 5) and then left for an additional 2 minutes prior to compound washout. Final ^45Ca (Amersham CES3-2 mCi) at 10 μCi/mL. • Agonist Assay: Compounds can be incubated with cells (expressing either human or rat VR1) for 2 minutes in the presence of Calcium-45 prior to compound washout. Final ^45Ca (Amersham CES3-2 mCi) at 10 μCi/mL. • Compound Washout and Analysis: Assay plates can be washed using an ELX405 plate washer (Bio-Tek Instruments Inc.) immediately after functional assay. One can wash 3× with PBS Mg2^+/Ca^2+ free, 0.1 mg/mL BSA, aspirating between washes. Plates may be read using a MicroBeta Jet (Wallac Inc.). Compound activity may then calculated using appropriate computational algorithms.

T1 sequence (Q8NER1 whole entry): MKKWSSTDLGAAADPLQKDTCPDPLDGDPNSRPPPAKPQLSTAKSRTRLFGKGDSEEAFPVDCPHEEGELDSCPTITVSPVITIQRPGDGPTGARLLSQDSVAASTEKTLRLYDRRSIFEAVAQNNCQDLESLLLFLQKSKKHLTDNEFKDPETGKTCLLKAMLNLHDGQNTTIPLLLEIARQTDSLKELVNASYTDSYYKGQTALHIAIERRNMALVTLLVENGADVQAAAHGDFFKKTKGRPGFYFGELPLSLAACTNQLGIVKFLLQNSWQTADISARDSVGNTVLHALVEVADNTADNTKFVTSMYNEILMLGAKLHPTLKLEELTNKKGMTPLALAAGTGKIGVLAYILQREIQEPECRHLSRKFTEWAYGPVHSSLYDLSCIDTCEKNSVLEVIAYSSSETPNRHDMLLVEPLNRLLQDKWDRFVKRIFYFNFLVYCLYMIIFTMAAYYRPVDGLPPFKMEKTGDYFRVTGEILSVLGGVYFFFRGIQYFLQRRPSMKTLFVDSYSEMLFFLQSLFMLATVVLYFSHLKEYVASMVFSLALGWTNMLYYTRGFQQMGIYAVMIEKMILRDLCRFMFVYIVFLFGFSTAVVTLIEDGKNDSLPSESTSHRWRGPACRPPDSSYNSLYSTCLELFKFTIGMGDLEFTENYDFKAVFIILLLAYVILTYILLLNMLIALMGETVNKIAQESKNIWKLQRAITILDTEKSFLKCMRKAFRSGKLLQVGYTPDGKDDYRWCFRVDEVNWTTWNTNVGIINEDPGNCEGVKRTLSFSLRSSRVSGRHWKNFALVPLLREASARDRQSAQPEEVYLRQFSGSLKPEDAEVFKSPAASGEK

SMILES	IC50 [nM]
CC(C)(C)OC(=O)N1CCC[C@H]1C(=O)Nc1cc(C(F)(F)F)ccc1-c1cc(Nc2cccc3c2C[C@@H](O)CC3)ncn1 (mixture of isomers) [Example 2, (2S)-tert-Butyl 2-((2-(6-((7S)-7-hydroxy-5,6,7,8-tetrahydro-naphthalen-1-ylamino)pyrimidin-4-yl)-5-(trifluoromethyl)phenyl)-carbamoyl)-pyrrolidine-1-carboxylate and (2S)-tert-Butyl 2-((2-(6-((7S)-7-hydroxy-5,6,7,8-tetrahydro-naphthalen-1-ylamino)pyrimidin-4-yl)-5-(trifluoromethyl)phenyl)-carbamoyl)-pyrrolidine-1-carboxylate]	< 100
CC(C)N1C(C)CC[C@H]1C(=O)Nc1cc(C(F)(F)F)ccc1-c1cc(Nc2cccc3c2CC(O)CC3)ncn1 (mixture of isomers) [Example 5, (2S, 5R,S, 7R,S)—N-(2-(6-(7-Hydroxy-5,6,7,8-tetrahydronaphthalen-1-ylamino)pyrimidin-4-yl)-5-(trifluoromethyl)phenyl)-1-isopropyl-5-methylpyrrolidine-2-carboxamide hydrochloride]	< 100
CC(C)N1CCC[C@H]1C(=O)Nc1cc(C(F)(F)F)ccc1-c1cc(Nc2cccc3c2C[C@@H](O)CC3)ncn1 (mixture of isomers) [Example 3, (2S)—N-(2-(6-(7S)-7-Hydroxy-5,6,7,8-tetrahydronaphthalen-1-ylamino)pyrimidin-4-yl)-5-(trifluoromethyl)phenyl)-1-isopropylpyrrolidine-2-carboxamide hydrochloride and (2S)—N-(2-(6-(7R)-7-Hydroxy-5,6,7,8-tetrahydro-naphthalen-1-ylamino)pyrimidin-4-yl)-5-(trifluoromethyl)phenyl)-1-isopropylpyrrolidine-2-carboxamide hydrochloride]	< 100
CC(C)CN1C(C)CC[C@H]1C(=O)Nc1cc(C(F)(F)F)ccc1-c1cc(Nc2cccc3c2CC(O)CC3)ncn1 (mixture of isomers) [Example 6, (2S, 5R,S, 7R,S)—N-(2-(6-(7-Hydroxy-5,6,7,8-tetrahydronaphthalen-1-ylamino)pyrimidin-4-yl)-5-(trifluoromethyl)phenyl)-1-isobutyl-5-methylpyrrolidine-2-carboxamide hydrochloride]	< 100

Other lines, results leading:

IC50 [nM]	SMILES
< 100	CC(C)CN1CCCCC1CNc1nc(C(F)(F)F)ccc1-c1cc(Nc2cccc3c2CC(O)CC3)ncn1 (mixture of isomers) [Example 1, (2R,S)-8-(6-(2-(((2R,S)-1-Isobutylpiperidin-2-yl)methylamino)-6-(trifluoro-methyl)pyridin-3-yl)pyrimidin-4-ylamino)-1,2,3,4-tetrahydronaphthalen-2-ol hydrochloride]
< 100	CC(C)N1CCC[C@H]1C(=O)Nc1cc(C(F)(F)F)ccc1-c1cc(Nc2cccc3c2C[C@H](O)CC3)ncn1 (mixture of isomers) [Example 3, (2S)—N-(2-(6-(7S)-7-Hydroxy-5,6,7,8-tetrahydronaphthalen-1-ylamino)pyrimidin-4-yl)-5-(trifluoromethyl)phenyl)-1-isopropylpyrrolidine-2-carboxamide hydrochloride and (2S)—N-(2-(6-(7R)-7-Hydroxy-5,6,7,8-tetrahydro-naphthalen-1-ylamino)pyrimidin-4-yl)-5-(trifluoromethyl)phenyl)-1-isopropylpyrrolidine-2-carboxamide hydrochloride]
< 100	CC1CC[C@@H](C(=O)Nc2cc(C(F)(F)F)ccc2-c2cc(Nc3cccc4c3CC(O)CC4)ncn2)N1 (mixture of isomers) [Example 4, (2S, 5R,S, 7R,S)—N-(2-(6-(7-Hydroxy-5,6,7,8-tetrahydronaphthalen-1-ylamino)pyrimidin-4-yl)-5-(trifluoromethyl)phenyl)-5-methylpyrrolidine-2-carboxamide hydrochloride]
